{"source": "paper PMC5376947", "about": "“Cytotoxicity of Zardaverine in Embryonal Rhabdomyosarcoma from a Costello Syndrome Patient” (Frontiers in Oncology, 2017)", "key": {"[1]": {"tested_on": "CS242 ERMS (screening) cells", "assay": "CS242 ERMS (screening) cell viability assay, CellTiter-Glo, 72 h", "conditions": "72 h, 72 h, top 18.8, 75 or 93.8 μM, mean ± SD (n = 3)", "experimental": "To generate cells optimized for high-throughput screening (HTS), one vial of frozen cells from the CS242 ERMS (initial) master cell bank was thawed in a 37°C water bath for 2 min, diluted by dropwise addition of 10 volumes of PBS, pelleted at 200 × g for 5 min, resuspended in PBS, pelleted, resuspended in medium, and transferred to a T75 flask. Cells were grown to 70% confluence over 27 days, with media changes every 3 days. Cells were then detached by trypsin treatment as described above [see CS242 ERMS (Initial)] and split at 1:20 into T150 flasks, giving 20 individual cultures at passage 7. After growth for a further 27 days with media changes every 3 days, cells reached 70% confluence and were detached and frozen as described above [see CS242 ERMS (Initial)] to give a working cell bank at passage 8.\nCell growth in 384-well plates was assessed daily for 5 days to determine the optimal starting cell number giving progressive growth suitable for a 72-h cell viability assay. One vial of CS242 ERMS cells was thawed from the screening bank and grown in a T75 flask until confluence was >70%, after which cells were detached using trypsin and counted as described above [see CS242 ERMS (Zardaverine Resistant)].\nUsing an electronic 16-channel pipettor (Finnpipette Novus MCP16), 40 μl of each cell dilution was dispensed into two columns of a TC-treated opaque white 384-well plate, giving a range of 10,000 to 78 cells/well. Columns 1, 2, 23, and 24 were filled with media alone (40 μl/well). Five replicate plates were covered with MicroClime environmental lids (Labcyte) to minimize evaporation and incubated at 37°C, 5% CO2 for 24, 48, 72, 96, and 120 h, respectively. A sixth plate was prepared for determination of cell viability at the time of cell seeding. To determine cell viability, plates were allowed to cool to room temperature for 1 h after removal from 37°C incubation, 20 μl/well of CellTiter-Glo was added using a MicroFlo Select microplate reagent dispenser (BioTek, Winooski, VT, USA), and luminescence was measured after an additional 30 min at room temperature using an EnVision microplate reader (PerkinElmer, Waltham, MA, USA).\nThe IC50 of dactinomycin was determined using cells passaged once from the CS242 ERMS (screening) cell bank [see CS242 ERMS (Screening)]. Cells were thawed, grown to 70% confluence over 3 days in a T75 flask, detached by trypsin treatment, seeded at 1,250 cells in 30 μl of media/well in 384-well opaque white TC plates, and allowed to attach overnight. […] After 72 h of cell growth in the presence of dactinomycin, 20 μl of CellTiter-Glo was added, and cell viability was determined as described above (see Cell Viability Assay Development). Percent viability was determined from luminescence values using high controls (no dactinomycin) and low controls (media alone; no cells), and IC50 values were calculated using four-parameter dose–response curve fitting analysis in GraphPad Prism.\nThe 2,000-compound Microsource Spectrum library was screened using a fresh batch of CS242 ERMS (screening) cells for each HTS run, prepared as described above (see Cell Viability Assay Development). […] Media alone was added to low control (background) wells in columns 2 and 24. Plates were covered using MicroClime environmental lids (Labcyte), and cells were allowed to attach overnight (≤12 h) at 37°C in an atmosphere of 5% CO2.\nCompounds were delivered to columns 3–22 of assay plates containing attached cells via an intermediate dilution. […] Likewise, DMSO was added to columns 1, 2, 23, and 24 for high and low controls, matching the 0.06% DMSO in the test wells."}, "PDE4": {"tested_on": "PDE4", "conditions": "PDE 4, read-out: Reported PDE inhibition IC50, cited from earlier work"}, "PDE3": {"tested_on": "PDE3", "conditions": "PDE 3, read-out: Reported PDE inhibition IC50, cited from earlier work"}, "[2]": {"tested_on": "glucocorticoid receptor (GR) activation", "set-up": "method as in earlier work", "conditions": "18 h treatment; ref [30]; cited from earlier work"}, "[3]": {"conditions": "Homo sapiens, read-out: CS242 ERMS viability IC50, Table 3 PDE inhibitor panel"}, "[4]": {"conditions": "read-out: CS242 ERMS viability IC50, Table 3 PDE inhibitor panel"}}, "note": "Like-named read-outs stand apart in the source and are kept apart here."}
{"compound": "COc1ccc([C@H](Cc2ccncc2)c2ccccc2)cc1OC1CCCC1", "note": "[CDP 840]", "values": [{"measurement": "IC50", "setting": "[1]; [3]", "value": 27.8, "unit": "µM"}, {"measurement": "IC50", "setting": "PDE4; ref [15]", "value": 0.012, "unit": "µM"}]}
{"compound": "CN(C(=O)CCCOc1ccc2[nH]c(=O)ccc2c1)C1CCCCC1", "note": "[Cilostamide]", "values": [{"measurement": "IC50", "setting": "[1]; [3]", "value": "> 18.8", "unit": "µM"}, {"measurement": "IC50", "setting": "PDE3; ref [19], [20]", "value": 0.027, "unit": "µM"}, {"measurement": "activity in GR activation screen, in words", "setting": "[2]", "value": "inactive"}]}
{"compound": "O=C1CCc2cc(OCCCCc3nnnn3C3CCCCC3)ccc2N1", "note": "[Cilostazol]", "values": [{"measurement": "IC50", "setting": "[1]; [3]", "value": "> 93.8", "unit": "µM"}, {"measurement": "IC50", "setting": "PDE3; ref [24]", "value": 0.2, "unit": "µM"}]}
{"compound": "CCCn1c(=O)c(C)cn2nc(N)nc12", "note": "[ICI 63197]", "values": [{"measurement": "IC50", "setting": "[1]; [4]", "value": "> 93.8", "unit": "µM"}, {"measurement": "IC50", "setting": "PDE4; ref [26]", "value": 0.035, "unit": "µM"}]}
{"compound": "Cc1[nH]c(=O)c(C#N)cc1-c1ccncc1", "note": "[Milrinone]", "values": [{"measurement": "IC50", "setting": "[1]; [3]", "value": "> 18.8", "unit": "µM"}, {"measurement": "IC50", "setting": "PDE3; ref [21]", "value": 0.056, "unit": "µM"}]}
{"compound": "COc1ccc(C(=O)Nc2c(Cl)cncc2Cl)cc1OC1CCCC1", "note": "[Piclamilast]", "values": [{"measurement": "IC50", "setting": "[1]; [3]", "value": 55.8, "unit": "µM"}, {"measurement": "IC50", "setting": "PDE4; ref [17]", "value": 0.001, "unit": "µM"}]}
{"compound": "O=c1c2cccnc2n(-c2cccc([N+](=O)[O-])c2)c(=O)n1Cc1ccncc1", "note": "[RS 25344]", "values": [{"measurement": "IC50", "setting": "[1]; [4]", "value": "> 93.8", "unit": "µM"}, {"measurement": "IC50", "setting": "PDE4; ref [25]", "value": 0.00028, "unit": "µM"}]}
{"compound": "CCCCOc1cc(CC2CNC(=O)N2)ccc1OC", "note": "(stereo not shown) [Ro 20-1724]", "values": [{"measurement": "IC50", "setting": "[1]; [4]", "value": "> 18.8", "unit": "µM"}, {"measurement": "IC50", "setting": "PDE4; ref [23]", "value": 2, "unit": "µM"}]}
{"compound": "CN/C(=N\\c1ccc(C2=NNC(=O)CC2C)cc1)NC#N", "note": "(stereo not shown) [Siguazodan]", "values": [{"measurement": "IC50", "setting": "[1]; [3]", "value": "> 93.8", "unit": "µM"}, {"measurement": "IC50", "setting": "PDE3; ref [21]", "value": 0.117, "unit": "µM"}]}
{"compound": "COc1cc2c(cc1OC)-c1c/c(=N\\c3c(C)cc(C)cc3C)n(C)c(=O)n1CC2", "note": "[Trequinsin]", "values": [{"measurement": "IC50", "setting": "[1]; [3]", "value": 36.5, "unit": "µM"}, {"measurement": "IC50", "setting": "PDE3; ref [16]", "value": 0.00025, "unit": "µM"}]}
{"compound": "CCc1ccc2c(-c3cccc(Cl)c3)nc(=O)n(CC)c2n1", "note": "[YM 976, 4-(3-chlorophenyl)-1,7-diethylpyrido[2,3-d]pyrimidin-2(1H)-one]", "values": [{"measurement": "IC50", "setting": "[1]; [3]", "value": 60.7, "unit": "µM"}, {"measurement": "IC50", "setting": "PDE4; ref [18]", "value": 0.0022, "unit": "µM"}]}
{"compound": "(R)-(−)-rolipram", "values": [{"measurement": "IC50", "setting": "[1]; [4]", "value": "> 18.8", "unit": "µM"}, {"measurement": "IC50", "setting": "PDE4; ref [22]", "value": 0.22, "unit": "µM"}]}
